# Experimental data published in patent publication US8148531B2 (Chroma Therapeutics Ltd., priority 2005, dated 2012).
# Experiments:
# [1] = target: T1, Aurora-A (Homo sapiens, UniProt O14965); experiment: Aurora-A enzyme assay (MBP-coated Flashplate, γ-33P-ATP); format: biochemical; settings: IC50 range class; read-out: Inhibitor Activity vs Aurora-A
# T1 sequence (O14965 1-403): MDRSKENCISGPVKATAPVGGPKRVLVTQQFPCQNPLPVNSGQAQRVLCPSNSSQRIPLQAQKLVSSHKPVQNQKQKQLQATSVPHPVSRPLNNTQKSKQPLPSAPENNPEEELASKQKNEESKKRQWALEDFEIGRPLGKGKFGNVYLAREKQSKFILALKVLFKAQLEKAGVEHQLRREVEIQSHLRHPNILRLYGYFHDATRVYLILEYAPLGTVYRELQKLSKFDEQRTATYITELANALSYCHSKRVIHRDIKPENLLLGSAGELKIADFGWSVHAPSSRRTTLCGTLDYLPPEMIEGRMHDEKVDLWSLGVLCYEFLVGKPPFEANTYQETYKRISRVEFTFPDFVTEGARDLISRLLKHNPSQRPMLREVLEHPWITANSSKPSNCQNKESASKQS
# Experimental: The ability of compounds to inhibit Aurora-A activity was measured using a simple microplate assay for Aurora-A activity, also suitable for high-throughput screening. In brief, γ-^33P-ATP and Aurora-A were incubated in a myelin basic protein (MBP)-coated Flashplate® to generate a scintillation signal. The plates were formatted to contain the inhibitor, controls, positive control (staurosporin) and blanks. After incubation at 37° C. for 1 hour and a subsequent wash procedure, the plates were read on a TopCount-NXT™.
# The 384-well basic Flashplate® and the γ-^33P-ATP were obtained from PerkinElmer Life Sciences, Boston, Mass.
# IC50 values were determined by non-linear regression analysis, after fitting the data point results to the equation for sigmoidal dose response with variable slope (% activity against log concentration of compound), using Graphpad Prism software.
# Full experimental procedure for this assay can be found within the following reference: Sun, C Journal of Biomolecular Screening 9(5), 2004, 391.
# [2] = target: Aurora-B (Homo sapiens, UniProt Q96GD4); experiment: Aurora-B enzyme assay (identical protocol as Aurora-A); format: biochemical; settings: IC50 range class; read-out: Inhibitor Activity vs Aurora-B
# Aurora-B, sequence (Q96GD4 whole entry): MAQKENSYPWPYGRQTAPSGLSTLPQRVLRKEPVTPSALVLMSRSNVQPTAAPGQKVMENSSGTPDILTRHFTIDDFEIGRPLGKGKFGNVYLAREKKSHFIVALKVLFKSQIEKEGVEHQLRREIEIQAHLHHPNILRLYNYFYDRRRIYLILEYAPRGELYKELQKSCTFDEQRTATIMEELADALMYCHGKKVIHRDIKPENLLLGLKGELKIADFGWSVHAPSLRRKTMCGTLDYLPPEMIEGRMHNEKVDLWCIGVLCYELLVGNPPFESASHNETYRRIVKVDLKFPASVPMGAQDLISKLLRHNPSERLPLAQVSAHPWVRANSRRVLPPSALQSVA
# Outline: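 Aurora-B was assayed in the same way as Aurora-A: kinase and γ-33P-ATP were incubated for 1 h at 37 °C in myelin basic protein-coated scintillation plates. After washing, bound radioactivity was counted. IC50 values came from a variable-slope sigmoidal fit of % activity against log compound concentration.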
# [3] = system: U937 cell line; experiment: Cell inhibition assay (SRB cell viability), U937; format: cell-based; settings: Homo sapiens, U-937, IC50 range class, 72 h, read-out: Inhibitor Activity vs U937 cell line
# Outline: (§1)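 Log-phase cells seeded at 1000 cells/well, grown 24 h, then exposed to compounds (20 uM final) for 72 h. Viability read by sulphorhodamine B staining as % inhibition versus DMSO; IC50 from eight-point sigmoidal variable-slope fit.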
# [4] = system: HCT 116 cell line; experiment: Cell inhibition assay (SRB cell viability), HCT 116; format: cell-based; settings: Homo sapiens, IC50 range class, 72 h, read-out: Inhibitor Activity vs HCT 116 cell line
# Outline: as §1
# [5] = system: HUT cell line; experiment: Cell inhibition assay (SRB cell viability), HUT; format: cell-based; settings: IC50 range class, 72 h, read-out: Inhibitor Activity vs HUT cell line
# Outline: as §1
SMILES,IC50 [1] [nM],IC50 [2] [nM],IC50 [3] [nM],IC50 [4] [nM],IC50 [5] [nM]
"COc1cc2c(Oc3ccc(NC(=O)Nc4ccc(C(F)(F)F)cc4)cc3)ccnc2cc1OCCC[C@@H](N)C(=O)OC1CCCC1 [Example 119, (R)-2-Amino-5-(6-methoxy-4-{4-[3-(4-trifluoromethyl-phenyl)-ureido]-phenoxy}-quinolin-7-yloxy)-pentanoic acid cyclopentyl ester]",< 2000,< 2000,< 1000,< 1000,< 1000
"COc1cc2c(Oc3ccc(NC(=O)Nc4ccccc4)cc3)ccnc2cc1OCC[C@@H](N)C(=O)OC1CCCC1 [Example 101, (R)-2-Amino-4-{6-methoxy-4-[4-(3-phenyl-ureido)-phenoxy]-quinolin-7-yloxy}-butyric acid cyclopentyl ester]",2000 to 5000,< 2000,< 1000,< 1000,< 1000
"COc1cc2c(Oc3ccc(NC(=O)Nc4ccccc4)cc3)ccnc2cc1OCCC[C@H](N)C(=O)OC1CCCC1 [Example 111, (S)-2-Amino-5-{6-methoxy-4-[4-(3-phenyl-ureido)-phenoxy]-quinolin-7-yloxy}-pentanoic acid cyclopentyl ester]",2000 to 5000,2000 to 5000,< 1000,< 1000,< 1000
"COc1cc2c(Oc3ccc(NC(=O)c4ccccc4)cc3)ccnc2cc1OCCC[C@H](N)C(=O)OC1CCCC1 [Example 109, (S)-2-Amino-5-[4-(4-benzoylamino-phenoxy)-6-methoxy-quinolin-7-yloxy]-pentanoic acid cyclopentyl ester]",2000 to 5000,2000 to 5000,< 1000,< 1000,< 1000
"COc1cc2c(Oc3ccc(NC(=O)c4ccccc4)cc3)ccnc2cc1OCC[C@H](NC(=O)OC(C)(C)C)C(=O)OC1CCCC1 [Example 1, (S)-4-[4-(4-Benzoylamino-phenoxy)-6-methoxy-quinolin-7-yloxy]-2-tert-butoxycarbonylamino-butyric acid cyclopentyl ester]",2000 to 5000,> 5000,< 1000,< 1000,1000 to 5000
"COc1cc2c(Oc3ccc(NC(=O)c4ccccc4)cc3)ccnc2cc1OCC[C@@H](N)C(=O)OC1CCCC1 [Example 99, (R)-2-Amino-4-[4-(4-benzoylamino-phenoxy)-6-methoxy-quinolin-7-yloxy]-butyric acid cyclopentyl ester]",2000 to 5000,2000 to 5000,< 1000,< 1000,< 1000
"COc1cc2c(Oc3ccc(NC(=O)c4ccccc4)cc3)ccnc2cc1OCCC[C@@H](N)C(=O)OC1CCCC1 [Example 115, (R)-2-Amino-5-[4-(4-benzoylamino-phenoxy)-6-methoxy-quinolin-7-yloxy]-pentanoic acid cyclopentyl ester]",2000 to 5000,2000 to 5000,< 1000,< 1000,< 1000
"COc1cc2c(Nc3ccc(NC(=O)c4ccccc4)cc3)ccnc2cc1OCC[C@H](N)C(=O)OC1CCCC1 [Example 15, (S)-2-Amino-4-[4-(4-benzoylamino-phenylamino)-6-methoxy-quinolin-7-yloxy]-butyric acid cyclopentyl ester]",2000 to 5000,> 5000,1000 to 5000,1000 to 5000,1000 to 5000
"COc1cc2c(Oc3ccc(NC(=O)Nc4ccccc4)cc3)ccnc2cc1OCC[C@H](N)C(=O)OC1CCCC1 [Example 95, (S)-2-Amino-4-{6-methoxy-4-[4-(3-phenyl-ureido)-phenoxy]-quinolin-7-yloxy}-butyric acid cyclopentyl ester]",2000 to 5000,2000 to 5000,< 1000,< 1000,< 1000
